Reference: publication PMC4904262 (ACS Medicinal Chemistry Letters, 2016)
Read-outs that look alike come from different tables or passages of the source.

Experiments:
[1] = mouse
aldehyde oxidase [2] = biological target: T1, aldehyde oxidase (Homo sapiens, UniProt Q06278)
in vitro [3] = conditions: mouse, microsomes
in vitro [4] = conditions: rat, microsomes
in vitro [5] = conditions: human, microsomes
in vitro [6] = conditions: human, Caco-2
aldehyde oxidase [7] = biological target: T1, aldehyde oxidase; test: in vitro; conditions: cytosol
WNT signaling [8] = conditions: for fold less active in the cell-based assay: relative to 4; for drop off in the cell-based assay: cell-based versus CDK8 affinity
WNT signaling [9] = conditions: read-out: 7dF3 IC50; Figure 1; cited from earlier work
CDK19 = conditions: read-out: CDK19 IC50; Figure 1; cited from earlier work
[10] = human
Caco-2 = conditions: human
CDK8 = CDK8 (Homo sapiens, UniProt P49336); assay type: binding; conditions: versus parent analogue
CDK8, sequence (P49336 whole entry): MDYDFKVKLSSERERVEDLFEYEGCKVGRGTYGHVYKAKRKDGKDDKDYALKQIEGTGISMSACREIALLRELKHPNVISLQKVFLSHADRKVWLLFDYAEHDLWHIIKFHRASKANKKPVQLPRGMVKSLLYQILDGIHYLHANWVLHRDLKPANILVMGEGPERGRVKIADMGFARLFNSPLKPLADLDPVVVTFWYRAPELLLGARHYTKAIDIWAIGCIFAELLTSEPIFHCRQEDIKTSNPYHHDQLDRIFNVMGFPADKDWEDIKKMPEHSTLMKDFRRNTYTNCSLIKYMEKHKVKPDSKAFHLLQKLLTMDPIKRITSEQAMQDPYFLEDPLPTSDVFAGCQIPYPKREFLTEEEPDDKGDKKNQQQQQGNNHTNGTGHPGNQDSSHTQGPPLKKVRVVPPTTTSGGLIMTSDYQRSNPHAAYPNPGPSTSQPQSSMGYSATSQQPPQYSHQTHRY
CDK8, sequence (P24863 whole entry, further chain): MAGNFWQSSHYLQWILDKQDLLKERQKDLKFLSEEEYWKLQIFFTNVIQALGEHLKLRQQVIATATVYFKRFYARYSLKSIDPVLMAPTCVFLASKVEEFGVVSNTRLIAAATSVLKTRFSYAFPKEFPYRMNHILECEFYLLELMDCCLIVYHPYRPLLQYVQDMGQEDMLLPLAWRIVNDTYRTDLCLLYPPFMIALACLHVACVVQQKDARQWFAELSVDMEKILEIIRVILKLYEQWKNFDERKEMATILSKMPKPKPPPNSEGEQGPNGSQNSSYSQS

WNT signaling [11] = test: cells; conditions: 7dF3, read-out: 7dF3 IC50

T1 sequence (Q06278 whole entry): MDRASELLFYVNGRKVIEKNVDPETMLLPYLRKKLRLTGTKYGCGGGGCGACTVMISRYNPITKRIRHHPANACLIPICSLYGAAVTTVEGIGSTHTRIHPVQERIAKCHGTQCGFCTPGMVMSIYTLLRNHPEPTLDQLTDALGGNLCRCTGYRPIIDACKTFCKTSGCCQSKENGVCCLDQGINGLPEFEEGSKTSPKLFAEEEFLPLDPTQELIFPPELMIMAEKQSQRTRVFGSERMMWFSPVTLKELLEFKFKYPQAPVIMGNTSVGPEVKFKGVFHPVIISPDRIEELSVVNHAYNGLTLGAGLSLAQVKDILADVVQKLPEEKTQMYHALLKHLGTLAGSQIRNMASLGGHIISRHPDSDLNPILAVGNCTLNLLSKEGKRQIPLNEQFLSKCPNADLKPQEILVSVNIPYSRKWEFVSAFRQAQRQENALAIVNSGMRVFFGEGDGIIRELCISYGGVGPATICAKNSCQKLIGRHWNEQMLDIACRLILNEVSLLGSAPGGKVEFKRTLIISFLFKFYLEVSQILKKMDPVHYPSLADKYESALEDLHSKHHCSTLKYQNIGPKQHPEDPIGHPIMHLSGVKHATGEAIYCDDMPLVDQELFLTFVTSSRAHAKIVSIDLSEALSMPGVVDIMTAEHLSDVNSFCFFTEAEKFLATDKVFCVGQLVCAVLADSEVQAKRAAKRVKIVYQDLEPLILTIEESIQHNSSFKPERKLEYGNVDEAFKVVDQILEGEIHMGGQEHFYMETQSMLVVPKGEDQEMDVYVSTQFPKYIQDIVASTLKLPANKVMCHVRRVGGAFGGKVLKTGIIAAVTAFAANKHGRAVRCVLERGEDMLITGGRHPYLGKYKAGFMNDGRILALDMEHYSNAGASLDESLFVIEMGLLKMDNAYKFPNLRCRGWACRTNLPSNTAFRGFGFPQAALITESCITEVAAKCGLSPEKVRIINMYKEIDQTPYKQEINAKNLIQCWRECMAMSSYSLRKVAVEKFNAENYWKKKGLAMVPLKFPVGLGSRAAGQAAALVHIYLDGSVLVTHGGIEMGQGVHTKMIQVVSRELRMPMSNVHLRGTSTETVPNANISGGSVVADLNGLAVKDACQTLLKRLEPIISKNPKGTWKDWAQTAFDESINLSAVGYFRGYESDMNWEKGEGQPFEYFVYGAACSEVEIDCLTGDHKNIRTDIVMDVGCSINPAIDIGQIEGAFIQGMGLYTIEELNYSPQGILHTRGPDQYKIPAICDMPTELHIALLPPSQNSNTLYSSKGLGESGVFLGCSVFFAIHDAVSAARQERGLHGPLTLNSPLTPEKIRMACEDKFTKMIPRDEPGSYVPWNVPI

With `CNC(=O)c1ccc2cncc(-c3ccc4c(c3)CS(=O)(=O)N4C)c2n1` [Compound 7] the F ([1]; Balb/C, in vivo) was 16%, the Vss ([1]; Balb/C, in vivo) was 2.7 L/kg and the in vivo clearance [1] was “exceeded liver blood flow”. The “AO substrate (Enzyme assay)” value (aldehyde oxidase [2]) was “Yes”, the microsomal CLint at 1 µM (in vitro [3]) was 76 µL/min/mg and the microsomal CLint at 1 µM (in vitro [4]) was 142 µL/min/mg. It also gave a microsomal CLint at 1 µM (in vitro [5]) of 15 µL/min/mg, a Papp A→B (in vitro [6]) of 38.3 ×10⁻⁶ cm/s and an efflux ratio (in vitro [6]) of 1.02. It also gave a CLint scaled at 1 µM (aldehyde oxidase [7]) of 598 mL/min/kg.
For `Cn1cc(-c2ccc(-c3cncc4ccc(N5CCCC5=O)nc34)cc2)cn1` [Compound 19], the “fold less active in the cell-based assay” value (WNT signaling [8]) was 10 fold, the microsomal CLint at 1 µM (in vitro [3]) was 392 µL/min/mg and the microsomal CLint at 1 µM (in vitro [4]) was 253 µL/min/mg. It also gave a microsomal CLint at 1 µM (in vitro [5]) of 143 µL/min/mg and a CLint scaled at 1 µM (aldehyde oxidase [7]) of 418 mL/min/kg.
In the case of `Cn1cc(-c2ccc(-c3cncc(Cl)c3N3CCC4(CCNC4=O)CC3)cc2)cn1` [Compound 1], the IC50 (WNT signaling [9]) is listed as 5 ± 1 nM and the IC50 (CDK19) is listed as 6 ± 1 nM.
With `Cn1cc(-c2ccc(-c3cncc4ccc(S(N)(=O)=O)cc34)cc2)cn1` [Compound 36] the “drop off in the cell-based assay” value (WNT signaling [8]) was 12 fold, the microsomal CLint at 1 µM (in vitro [3]) was 125 µL/min/mg and the microsomal CLint at 1 µM (in vitro [4]) was 220 µL/min/mg. The microsomal CLint at 1 µM (in vitro [5]) was 47 µL/min/mg.
In the case of `Cn1ncc2cc(-c3cnc(N)c(Cl)c3N3CCC4(CCNC4=O)CC3)ccc21` [Compound 2], the IC50 (WNT signaling [9]) is listed as 11.8 ± 17.9 nM and the IC50 (CDK19) is listed as 2.6 ± 0.4 nM.
With `Cn1cc(-c2ccc(-c3cncc4ccc(N5CCCS5(=O)=O)cc34)cc2)cn1` [Compound 35] the “drop off in the cell-based assay” value (WNT signaling [8]) was 7 fold, the microsomal CLint at 1 µM (in vitro [3]) was 213 µL/min/mg and the microsomal CLint at 1 µM (in vitro [4]) was 81 µL/min/mg. For the same molecule, the microsomal CLint at 1 µM (in vitro [5]) was 54 µL/min/mg.
In the case of `CC(=O)Nc1ccc2cncc(-c3ccc(-c4cnn(C)c4)cc3)c2n1` [Compound 18], the “fold less active in the cell-based assay” value (WNT signaling [8]) is reported as 10 fold, the microsomal CLint at 1 µM (in vitro [3]) is reported as 168 µL/min/mg and the microsomal CLint at 1 µM (in vitro [4]) is reported as 247 µL/min/mg. The microsomal CLint at 1 µM (in vitro [5]) was 26 µL/min/mg.
For `CNC(=O)c1ccc2cncc(-c3ccc4c(c3)CS(=O)(=O)N4)c2n1` [Compound 8], the in vivo clearance [1] was “exceeded liver blood flow”, the Cl ([1]; in vivo) was “Not measurable” and the F ([1]; in vivo) was “Not measurable”. For the same molecule, the Vd ([1]; in vivo) was “Not measurable”, the “% of parent compd remaining after 45 min” value (aldehyde oxidase [2]; human, cytosol, 0.75 h, 1 µM) was 20% and the main metabolite [10] was “oxidation to give the C5-OH compound 37 as the main metabolite”. For the same molecule, the microsomal CLint at 1 µM (in vitro [3]) was 23 µL/min/mg, the microsomal CLint at 1 µM (in vitro [4]) was 21 µL/min/mg and the microsomal CLint (in vitro [5]) was less than 10 µL/min/mg. For the same molecule, the Papp A→B (in vitro [6]) was 5.94 ×10⁻⁶ cm/s and the efflux ratio (in vitro [6]) was 7.26.
In the case of `Cn1cc(-c2ccc(-c3cnc(N)c4ccc(C(=O)N5CCNCC5)nc34)cc2)cn1` [Compound 49], the “Caco-2 ER” value (Caco-2) is reported as 145, the “Caco-2 PappA-B” value (Caco-2) is reported as 0.96 × 10^–6 cm/s and the Cl ([1]; Balb/C, in vivo) is reported as 58.5 mL/min/kg. For the same molecule, the F ([1]; Balb/C, in vivo) was less than 5%, the Vss ([1]; Balb/C, in vivo) was 2.49 L/kg and the microsomal CLint at 1 µM (in vitro [3]) was 36 µL/min/mg. For the same molecule, the microsomal CLint (in vitro [4]) was less than 10 µL/min/mg, the microsomal CLint (in vitro [5]) was less than 10 µL/min/mg and the CLint scaled at 1 µM (aldehyde oxidase [7]) was less than 4.2 mL/min/kg.
For `Cn1cc(-c2ccc(-c3cnc(N)c4ccc(-c5nccn5C)nc34)cc2)cn1` [Compound 57], the “drop in CDK8 affinity” value (CDK8) was 225 fold.
With `CNC(=O)c1ccc2c(N)ncc(-c3ccc4c(c3)CS(=O)(=O)N4C)c2n1` [Compound 48] the Cl ([1]; Balb/C, in vivo) was 213 mL/min/kg, the F ([1]; Balb/C, in vivo) was 29% and the Vss ([1]; Balb/C, in vivo) was 5.64 L/kg. The “AO substrate (Enzyme assay)” value (aldehyde oxidase [2]) was “No”, the IC50 (WNT signaling [11]) was 9.3 ± 2.3 nM and the microsomal CLint (in vitro [3]) was 94 µL/min/mg. For the same molecule, the microsomal CLint (in vitro [4]) was 24 µL/min/mg, the microsomal CLint (in vitro [5]) was 18 µL/min/mg and the CLint scaled at 1 µM (aldehyde oxidase [7]) was 15 mL/min/kg.
